Assay results from patent US6387329B1, “Use of an array of polymeric sensors of varying thickness for detecting analytes in fluids” (California Institute of Technology, priority 1998, dated 2002).

Tested on: cytochrome P-450 aniline p-hydroxylation
Assay: inhibitory action of alcohols on cytochrome P-450 aniline p-hydroxylation (data of Cohen and Mannering)
Format: biochemical
Conditions: versus the electronic nose QSAR and another QSAR on the cytochrome P-450 system
From the text: To test the ability of the “electronic nose” to identify molecules of interest having a particular biological activity selected from a library of molecules of interest, a quantitative structure-activity relationship (QSAR) was used to predict the inhibitory action of a series of alcohols on cytochrome P-450 aniline p-hydroxylation.
The values are expressed as PI50, where I50 is the concentration of the alcohol (in mM) at which the activity of the enzyme is 50% inhibited, and PI50 is the negative logarithm of I50. More positive numbers correspond to more strongly inhibiting alcohols.

OCc1ccccc1 [benzyl alcohol]
activity compared with QSAR prediction: higher activity than is predicted
